Measurements reported in ChEMBL document CHEMBL1201861, “Genomics of Drug Sensitity in Cancer screening data, Wellcome Trust Sanger Institute”.

How the values were obtained:
Assay in all cases: cells
OMC-1 = assay type: functional, cell-based, Homo sapiens; conditions: Homo sapiens, OMC-1;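 note: growth inhibition of the OMC-1 cell line, measured by a cell viability assay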
Description: SANGER: Inhibition of human OMC-1 cell growth in a cell viability assay.

MV4-11 = assay type: functional, cell-based, Homo sapiens, MV-4-11; conditions: Homo sapiens, MV4-11;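 note: cell viability readout measuring growth inhibition of human MV-4-11 cells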
Description: SANGER: Inhibition of human MV-4-11 cell growth in a cell viability assay.

UACC-257 = assay type: functional, cell-based, Homo sapiens; conditions: Homo sapiens, UACC-257
Description: SANGER: Inhibition of human UACC-257 cell growth in a cell viability assay.

DB = assay type: functional, cell-based, Homo sapiens; conditions: Homo sapiens, DB
Description: SANGER: Inhibition of human DB cell growth in a cell viability assay.

NCI-H446 = assay type: functional, cell-based, Homo sapiens; conditions: Homo sapiens, NCI-H446;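 note: growth inhibition of NCI-H446 cells determined by a cell viability assay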
Description: SANGER: Inhibition of human NCI-H446 cell growth in a cell viability assay.

HH = assay type: functional, cell-based, Homo sapiens; conditions: Homo sapiens, HH
Description: SANGER: Inhibition of human HH cell growth in a cell viability assay.

LOX IMVI = assay type: functional, cell-based, Homo sapiens; conditions: Homo sapiens, LOX IMVI
Description: SANGER: Inhibition of human LOXIMVI cell growth in a cell viability assay.

TE-9 = assay type: functional, cell-based, Homo sapiens; conditions: Homo sapiens, TE-9;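 note: cell growth inhibition, measured with a cell viability readout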
Description: SANGER: Inhibition of human TE-9 cell growth in a cell viability assay.

SF-539 = assay type: functional, cell-based, Homo sapiens; conditions: Homo sapiens, SF-539;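 note: Read-out is a cell viability assay, with IC50 reflecting inhibition of cell growth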
Description: SANGER: Inhibition of human SF539 cell growth in a cell viability assay.

TGBC24TKB = assay type: functional, cell-based, Homo sapiens; conditions: Homo sapiens, TGBC24TKB;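 note: growth inhibition of human TGBC24TKB cells, read out with a cell viability assay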
Description: SANGER: Inhibition of human TGBC24TKB cell growth in a cell viability assay.

SNB-75 = assay type: functional, cell-based, Homo sapiens; conditions: Homo sapiens, SNB-75;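 note: cell viability assay measuring growth inhibition of human SNB-75 cells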
Description: SANGER: Inhibition of human SNB75 cell growth in a cell viability assay.

KG-1 = assay type: functional, cell-based, Homo sapiens; conditions: Homo sapiens, KG-1;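 note: growth inhibition of KG-1 cells, read out by a cell viability assay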
Description: SANGER: Inhibition of human KG-1 cell growth in a cell viability assay.

HT = assay type: functional, cell-based, Homo sapiens; conditions: Homo sapiens, HT
Description: SANGER: Inhibition of human HT cell growth in a cell viability assay.

NCI-H1581 = assay type: functional, cell-based, Homo sapiens; conditions: Homo sapiens, NCI-H1581;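 note: cell growth inhibition read out by a viability assay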
Description: SANGER: Inhibition of human NCI-H1581 cell growth in a cell viability assay.

TGBC1TKB = assay type: functional, cell-based, Homo sapiens; conditions: Homo sapiens, TGBC1TKB;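 note: growth inhibition of TGBC1TKB cells, read out by a cell viability assay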
Description: SANGER: Inhibition of human TGBC1TKB cell growth in a cell viability assay.

LB771-HNC = assay type: functional, cell-based, Homo sapiens; conditions: Homo sapiens, LB771-HNC;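 note: growth inhibition of LB771-HNC human cells, read out with a cell viability assay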
Description: SANGER: Inhibition of human LB771-HNC cell growth in a cell viability assay.

Calu-6 = assay type: functional, cell-based, Homo sapiens; conditions: Homo sapiens, Calu-6;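 note: growth of human Calu-6 cells, read out by a cell viability assay, IC50 marking inhibition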
Description: SANGER: Inhibition of human Calu-6 cell growth in a cell viability assay.

ES3 = assay type: functional, cell-based, Homo sapiens; conditions: Homo sapiens, ES3;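 note: growth inhibition of ES3 cells, read out with a cell viability assay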
Description: SANGER: Inhibition of human ES3 cell growth in a cell viability assay.

IST-SL1 = assay type: functional, cell-based, Homo sapiens; conditions: Homo sapiens, IST-SL1;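 note: growth inhibition of human IST-SL1 cells, read out with a cell viability assay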
Description: SANGER: Inhibition of human IST-SL1 cell growth in a cell viability assay.

CAS-1 = assay type: functional, cell-based, Homo sapiens; conditions: Homo sapiens, CAS-1;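 note: growth inhibition of CAS-1 cells, measured with a cell viability assay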
Description: SANGER: Inhibition of human CAS-1 cell growth in a cell viability assay.

SW 962 = assay type: functional, cell-based, Homo sapiens; conditions: Homo sapiens, SW 962;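 note: growth inhibition of human SW962 cells, read out by a cell viability assay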
Description: SANGER: Inhibition of human SW962 cell growth in a cell viability assay.

DSH1 = assay type: functional, cell-based, Homo sapiens; conditions: Homo sapiens, DSH1;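 note: growth inhibition of human DSH1 cells, measured with a cell viability readout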
Description: SANGER: Inhibition of human DSH1 cell growth in a cell viability assay.

HCC2157 = assay type: functional, cell-based, Homo sapiens; conditions: Homo sapiens, HCC2157;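 note: growth inhibition of the cancer cell line, read out as cell viability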
Description: SANGER: Inhibition of human HCC2157 cell growth in a cell viability assay.

L-428 = assay type: functional, cell-based, Homo sapiens; conditions: Homo sapiens, L-428
Description: SANGER: Inhibition of human L-428 cell growth in a cell viability assay.

DMS-114 = assay type: functional, cell-based, Homo sapiens; conditions: Homo sapiens, DMS-114
SW872 = assay type: functional, cell-based, Homo sapiens; conditions: Homo sapiens, SW872;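 note: growth inhibition of SW872 cells, read out by a viability assay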
Description: SANGER: Inhibition of human SW872 cell growth in a cell viability assay.

NCI-H720 = assay type: functional, cell-based, Homo sapiens; conditions: Homo sapiens, NCI-H720;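 note: growth inhibition of human NCI-H720 cells determined by a cell viability assay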
Description: SANGER: Inhibition of human NCI-H720 cell growth in a cell viability assay.

ES4 = assay type: functional, cell-based, Homo sapiens; conditions: Homo sapiens, ES4;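 note: growth inhibition of human ES4 cells, read out by a cell viability assay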
Description: SANGER: Inhibition of human ES4 cell growth in a cell viability assay.

NOMO-1 = assay type: functional, cell-based, Homo sapiens; conditions: Homo sapiens, NOMO-1;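 note: growth inhibition of human NOMO-1 cells measured by a cell viability assay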
Description: SANGER: Inhibition of human NOMO-1 cell growth in a cell viability assay.

AM-38 = assay type: functional, cell-based, Homo sapiens; conditions: Homo sapiens, AM-38;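 note: growth inhibition of AM-38 cells of human origin, read out by a cell viability assay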
Description: SANGER: Inhibition of human AM-38 cell growth in a cell viability assay.

SNU1 = assay type: functional, cell-based, Homo sapiens; conditions: Homo sapiens, SNU1;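 note: growth inhibition of human NCI-SNU-1 cells, measured with a cell viability assay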
Description: SANGER: Inhibition of human NCI-SNU-1 cell growth in a cell viability assay.

RXF 393 = assay type: functional, cell-based, Homo sapiens; conditions: Homo sapiens, RXF 393;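 note: growth inhibition of human RXF 393 cells, read out with a cell viability assay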
Description: SANGER: Inhibition of human RXF393 cell growth in a cell viability assay.

TE-10 = assay type: functional, cell-based, Homo sapiens; conditions: Homo sapiens, TE-10;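 note: growth inhibition of TE-10 cells, measured by a cell viability assay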
Description: SANGER: Inhibition of human TE-10 cell growth in a cell viability assay.

EC-GI-10 = assay type: functional, cell-based, Homo sapiens; conditions: Homo sapiens, EC-GI-10
Description: SANGER: Inhibition of human EC-GI-10 cell growth in a cell viability assay.

EW-24 = assay type: functional, cell-based, Homo sapiens; conditions: Homo sapiens, EW-24;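 note: human EW-24 cancer cell line, growth inhibition read out via a cell viability assay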
Description: SANGER: Inhibition of human EW-24 cell growth in a cell viability assay.

MC116 = assay type: functional, cell-based, Homo sapiens; conditions: Homo sapiens, MC116;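 note: growth inhibition of MC116 cells, read out with a cell viability assay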
Description: SANGER: Inhibition of human MC116 cell growth in a cell viability assay.

QIMR-WIL = assay type: functional, cell-based, Homo sapiens; conditions: Homo sapiens, QIMR-WIL;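 note: growth inhibition of QIMR-WIL cells, read out with a cell viability assay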
Description: SANGER: Inhibition of human QIMR-WIL cell growth in a cell viability assay.

SK-LMS-1 = assay type: functional, cell-based, Homo sapiens; conditions: Homo sapiens, SK-LMS-1;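 note: growth inhibition of human SK-LMS-1 cells, read out with a cell viability assay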
Description: SANGER: Inhibition of human SK-LMS-1 cell growth in a cell viability assay.

NCI-H1838 = assay type: functional, cell-based, Homo sapiens; conditions: Homo sapiens, NCI-H1838;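 note: growth inhibition of NCI-H1838 cells, determined with a cell viability readout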
Description: SANGER: Inhibition of human NCI-H1838 cell growth in a cell viability assay.

KM12 = assay type: functional, cell-based, Homo sapiens; conditions: Homo sapiens, KM12;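 note: KM12 cell growth inhibition, read out with a cell viability assay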
Description: SANGER: Inhibition of human KM12 cell growth in a cell viability assay.

CCRF-CEM = assay type: functional, cell-based, Homo sapiens; conditions: Homo sapiens, CCRF-CEM;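 note: inhibition of CCRF-CEM cell growth, measured by a cell viability assay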
Description: SANGER: Inhibition of human CCRF-CEM cell growth in a cell viability assay.

ETK-1 = assay type: functional, cell-based, Homo sapiens; conditions: Homo sapiens, ETK-1;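 note: growth inhibition of human ETK-1 cells, read out with a cell viability assay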
Description: SANGER: Inhibition of human ETK-1 cell growth in a cell viability assay.

KU812 cell line = assay type: functional, cell-based, Homo sapiens; conditions: Homo sapiens, KU812;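 note: growth inhibition of KU812 cells, read out with a cell viability assay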
Description: SANGER: Inhibition of human KU812 cell growth in a cell viability assay.

C2BBe1 = assay type: functional, cell-based, Homo sapiens; conditions: Homo sapiens, C2BBe1;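 note: growth inhibition of C2BBe1 cells, read out through a viability assay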
Description: SANGER: Inhibition of human C2BBe1 cell growth in a cell viability assay.

NCI-H1648 = assay type: functional, cell-based, Homo sapiens; conditions: Homo sapiens, NCI-H1648;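 note: cell viability assay measuring inhibition of NCI-H1648 cell growth, from the Sanger screening data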
Description: SANGER: Inhibition of human NCI-H1648 cell growth in a cell viability assay.

MS-1 = assay type: functional, cell-based, Homo sapiens; conditions: Homo sapiens, MS-1
Description: SANGER: Inhibition of human MS-1 cell growth in a cell viability assay.

OVCAR-4 = assay type: functional, cell-based, Homo sapiens; conditions: Homo sapiens, OVCAR-4;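 note: growth inhibition of human OVCAR-4 cells, measured with a cell viability assay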
Description: SANGER: Inhibition of human OVCAR-4 cell growth in a cell viability assay.

LU-134-A = assay type: functional, cell-based, Homo sapiens; conditions: Homo sapiens, LU-134-A
Description: SANGER: Inhibition of human LU-134-A cell growth in a cell viability assay.

K5 = assay type: functional, cell-based, Homo sapiens; conditions: Homo sapiens, K5
Description: SANGER: Inhibition of human K5 cell growth in a cell viability assay.

COc1cc(-c2nn([C@H]3CC[C@H](N4CCN(C(C)=O)CC4)CC3)c3ncnc(N)c23)ccc1NC(=O)c1cc2ccccc2n1C
IC50 (OMC-1): > 5120 nM
IC50 (MV4-11): > 5120 nM
IC50 (UACC-257): > 5120 nM
IC50 (DB): > 5120 nM
IC50 (NCI-H446): > 5120 nM
IC50 (HH): > 5120 nM
IC50 (LOX IMVI): > 5120 nM
IC50 (TE-9): > 5120 nM
IC50 (SF-539): > 5120 nM
IC50 (TGBC24TKB): 808 nM
IC50 (SNB-75): 340 nM
IC50 (KG-1): > 5120 nM
IC50 (HT): > 5120 nM
IC50 (NCI-H1581): > 5120 nM
IC50 (TGBC1TKB): 3630 nM
IC50 (LB771-HNC): > 5120 nM
IC50 (Calu-6): > 5120 nM
IC50 (ES3): > 5120 nM
IC50 (IST-SL1): > 5120 nM
IC50 (CAS-1): > 5120 nM
IC50 (SW 962): > 5120 nM
IC50 (DSH1): > 5120 nM
IC50 (HCC2157): > 5120 nM
IC50 (L-428): > 5120 nM
IC50 (DMS-114): > 5120 nM
IC50 (SW872): 452 nM
IC50 (NCI-H720): > 5120 nM
IC50 (ES4): > 5120 nM
IC50 (NOMO-1): > 5120 nM
IC50 (AM-38): > 5120 nM
IC50 (SNU1): > 5120 nM
IC50 (RXF 393): 1120 nM
IC50 (TE-10): 2360 nM
IC50 (EC-GI-10): > 5120 nM
IC50 (EW-24): > 5120 nM
IC50 (MC116): 856 nM
IC50 (QIMR-WIL): 2870 nM
IC50 (SK-LMS-1): > 5120 nM
IC50 (NCI-H1838): > 5120 nM
IC50 (KM12): > 5120 nM
IC50 (CCRF-CEM): > 5120 nM
IC50 (ETK-1): 349 nM
IC50 (KU812 cell line): > 5120 nM
IC50 (C2BBe1): 757 nM
IC50 (NCI-H1648): 387 nM
IC50 (MS-1): > 5120 nM
IC50 (OVCAR-4): 1040 nM
IC50 (LU-134-A): > 5120 nM
IC50 (K5): > 5120 nM

CC(=O)O[C@H]1C(=O)[C@@]2(C)[C@H]([C@H](OC(=O)c3ccccc3)[C@]3(O)C[C@H](OC(=O)[C@H](O)[C@@H](NC(=O)c4ccccc4)c4ccccc4)C(C)=C1C3(C)C)[C@]1(OC(C)=O)CO[C@@H]1C[C@@H]2O [PACLITAXEL]
IC50 (OMC-1): > 102 nM
IC50 (MV4-11): 4.75 nM
IC50 (UACC-257): 48.5 nM
IC50 (DB): > 102 nM
IC50 (NCI-H446): 21.1 nM
IC50 (HH): 71.6 nM
IC50 (LOX IMVI): 70.3 nM
IC50 (TE-9): 3.26 nM
IC50 (SF-539): 24 nM
IC50 (TGBC24TKB): 7.52 nM
IC50 (SNB-75): 15.4 nM
IC50 (KG-1): > 102 nM
IC50 (HT): 80.9 nM
IC50 (NCI-H1581): 49.5 nM
IC50 (TGBC1TKB): 17.5 nM
IC50 (LB771-HNC): 25.3 nM
IC50 (Calu-6): 10.1 nM
IC50 (ES3): > 102 nM
IC50 (IST-SL1): 30.4 nM
IC50 (CAS-1): > 102 nM
IC50 (SW 962): 6.62 nM
IC50 (DSH1): > 102 nM
IC50 (HCC2157): > 102 nM
IC50 (L-428): > 102 nM
IC50 (DMS-114): 25 nM
IC50 (SW872): 42.1 nM
IC50 (NCI-H720): > 102 nM
IC50 (ES4): 4.49 nM
IC50 (NOMO-1): 92.8 nM
IC50 (AM-38): > 102 nM
IC50 (SNU1): > 102 nM
IC50 (RXF 393): 12.6 nM
IC50 (TE-10): 1.54 nM
IC50 (EC-GI-10): 72.6 nM
IC50 (EW-24): 64.8 nM
IC50 (MC116): 2.89 nM
IC50 (QIMR-WIL): 10.3 nM
IC50 (SK-LMS-1): 4.01 nM
IC50 (NCI-H1838): > 102 nM
IC50 (KM12): 6.37 nM
IC50 (CCRF-CEM): 8.71 nM
IC50 (ETK-1): 1.52 nM
IC50 (KU812 cell line): 20.4 nM
IC50 (C2BBe1): > 102 nM
IC50 (NCI-H1648): 4.69 nM
IC50 (MS-1): > 102 nM
IC50 (OVCAR-4): 9.04 nM
IC50 (LU-134-A): 47.7 nM
IC50 (K5): 72.3 nM

CC[C@H](CO)Nc1nc(NCc2ccccc2)c2ncn(C(C)C)c2n1 [SELICICLIB]
IC50 (OMC-1): > 16000 nM
IC50 (MV4-11): > 16000 nM
IC50 (UACC-257): > 16000 nM
IC50 (DB): > 16000 nM
IC50 (NCI-H446): > 16000 nM
IC50 (HH): > 16000 nM
IC50 (LOX IMVI): > 16000 nM
IC50 (TE-9): > 16000 nM
IC50 (SF-539): > 16000 nM
IC50 (SNB-75): > 16000 nM
IC50 (KG-1): > 16000 nM
IC50 (HT): > 16000 nM
IC50 (NCI-H1581): > 16000 nM
IC50 (TGBC1TKB): > 16000 nM
IC50 (LB771-HNC): > 16000 nM
IC50 (Calu-6): > 16000 nM
IC50 (ES3): > 16000 nM
IC50 (IST-SL1): > 16000 nM
IC50 (CAS-1): > 16000 nM
IC50 (SW 962): > 16000 nM
IC50 (DSH1): > 16000 nM
IC50 (HCC2157): > 16000 nM
IC50 (L-428): > 16000 nM
IC50 (DMS-114): > 16000 nM
IC50 (SW872): > 16000 nM
IC50 (NCI-H720): > 16000 nM
IC50 (ES4): > 16000 nM
IC50 (NOMO-1): > 16000 nM
IC50 (AM-38): > 16000 nM
IC50 (SNU1): > 16000 nM
IC50 (RXF 393): > 16000 nM
IC50 (TE-10): > 16000 nM
IC50 (EC-GI-10): > 16000 nM
IC50 (EW-24): > 16000 nM
IC50 (MC116): > 16000 nM
IC50 (QIMR-WIL): > 16000 nM
IC50 (SK-LMS-1): > 16000 nM
IC50 (NCI-H1838): > 16000 nM
IC50 (KM12): > 16000 nM
IC50 (CCRF-CEM): > 16000 nM
IC50 (ETK-1): > 16000 nM
IC50 (KU812 cell line): > 16000 nM
IC50 (C2BBe1): > 16000 nM
IC50 (NCI-H1648): > 16000 nM
IC50 (MS-1): > 16000 nM
IC50 (OVCAR-4): > 16000 nM
IC50 (LU-134-A): > 16000 nM
IC50 (K5): > 16000 nM
